Structures can show the parent of a compound that is named as a salt.
assay: Remaining amount of each vitamin after 6 months storage at room temperature, measured by HPLC; assay type: physicochemical; conditions: vitamin in Example 3 infusion preparation before mixing, stored at room temperature for 6 months
Description: The infusion preparation (before mixing the first-chamber. infusion and the second-chamber infusion) was stored at room temperature for 6 months. Thereafter, the amount of each vitamin component contained in the first-chamber infusion or the second-chamber infusion was measured using HPLC. […] As is clear from the results, each of the vitamin components can be stably present in the infusion preparation even after 6 months storage.

Row | Compound | Remaining rate after 6 months storage (%)
1 | O=C1O[C@H]([C@@H](O)CO)C(O)=C1O [Ascorbic acid] | 99.9
2 | O=C(O)CCCC[C@@H]1SC[C@@H]2NC(=O)N[C@@H]21 [Biotin] | 97.8
3 | C=C1CC[C@H](O)C/C1=C/C=C1\CCC[C@]2(C)[C@@H]([C@H](C)CCCC(C)C)CC[C@@H]12 [Cholecalciferol] | 100.5
4 | Nc1nc2ncc(CNc3ccc(C(=O)N[C@@H](CCC(=O)O)C(=O)O)cc3)nc2c(=O)[nH]1 [Folic acid] | 100.0
5 | NC(=O)c1cccnc1 [Nicotinamide] | 99.6
6 | CC(C)(CO)[C@@H](O)C(=O)NCCCO [Panthenol] | 100.4
7 | CC1=C(C/C=C(\C)CCC[C@H](C)CCC[C@H](C)CCCC(C)C)C(=O)c2ccccc2C1=O [Phytonadione] | 101.5
8 | Cc1ncc(CO)c(CO)c1O.Cl [Pyridoxine hydrochloride] | 99.3
9 | Cc1cc2nc3c(=O)[nH]c(=O)nc-3n(C[C@H](O)[C@H](O)[C@H](O)COP(=O)(O)O)c2cc1C [Riboflavin sodium phosphate] | 100.1
10 | Cc1ncc(C[n+]2csc(CCO)c2C)c(N)n1 [Thiamine chloride hydrochloride] | 98.7
11 | CC(=O)Oc1c(C)c(C)c2c(c1C)CCC(C)(CCC[C@H](C)CCC[C@H](C)CCCC(C)C)O2 (stereo partly drawn) [Tocopherol acetate] | 99.0
12 | Cyanocobalamin | 103.2

Source: patent publication US20170304530A1, “INFUSION PREPARATION” (priority 2010, published 2017)
